Where two headings read alike, the source gives them in different places.
Columns and labels:
Rat pharmacokinetics = type: in vivo; settings: for clearance: read-out: PK: Cl; for bioavailability: po, 10 mg/kg; for half-life: read-out: PK: T1/2 (converted)
Procedure: The pharmacokinetic (PK) properties of test compound following single intravenous (IV) bolus and oral gavage (PO) administration in male Sprague-Dawley (SD) rats were determined in this study.
Test compound administration: Six male Sprague Dawley (SD) rats were divided into two designated groups, Group 1 and Group 2, each composed of three rat subjects. Group 1 animals were subjected to a single intravenous bolus administration of the test compound at a dosage of 1 mg/kg. Group 2 animals were administered with the test compound orally in a single dose, at a concentration of 10 mg/kg. Throughout the study, the animals had unhindered access to food. The test compound was administered at a concentration of 0.5 mg/mL and dose volume of 2 mL/kg for Group 1, and at a concentration of 1 mg/mL and dose volume of 10 mL/kg, for Group 2.
Sample extraction and analysis: Plasma samples were systematically collected at varying time points of 0.083 (only for Group 1), 0.25, 0.5, 1, 2, 4-, 6-, 8-, and 24-hours post-dose. LC-MS/MS was used to determine the test compound's concentration within the collected plasma samples. Data reflecting plasma concentration in correlation to time were graphically represented and subjected to a non-compartmental analysis using the Phoenix WinNonlin 6.3 software program. The resulting pharmacokinetic parameters, including Clearance (Cl), Volume of distribution at steady state (Vdss) and initial concentration (C0) for intravenous administration; peak concentration (Cmax), time of peak concentration (Tmax), and bioavailability (% F) for extravascular administration; and half-life (T1/2), Area Under Curve from time zero to time t (AUC(0-t)), Area Under Curve from time zero to infinity (AUC(0-inf)), Mean Residence Time from time zero to time t (MRT(0-t)), Mean Residence Time from time zero to infinity (MRT(0-inf)) for all routes, were systematically calculated.

hKv7.4 = target: T1, hKv7.4 (Homo sapiens, UniProt P56696); experiment: Kv7.4 HCS, FLIPR potassium assay; type: cell-based
T1 construct: expressed in transfected cells; host or cells: CHO
Procedure: (§1) Cell culture: Chinese hamster ovary (CHO) cell-line cells were cultured in F-12 nutrient mixture (Biological Industries) supplemented with 10% fetal bovine serum with 1% penicillin-streptomycin (Biological Industries) in a humidified 5% CO2 incubator at 37° C. To express the appropriate gene either Kv7.3/5, Kv7.4 or TRPA1 5 μg plasmid was transfected using Amaxa, DT-133 program, with p-3 Kit.
(§2) Kv7.3/5 and 7.4HCS using FLIPR Potassium Assay Kit: Kv7.3/5 and 7.4 HCS using the FLIPR Potassium Assay Kit was performed similarly to the Kv7.2/3 HCS, except that the Tecan Spark plate-reader injectors were primed with Tl+(1 mM Tl2SO4) or Tl++K+(1 mM Tl2SO4; 5 mM K2SO4) for Kv7.3/5, or Tl+(1 mM Tl2SO4) or Tl++K+(1 mM Tl2SO4; 10 mM K2SO4) for Kv7.4 for channel activation and data correction.
(§3) FLIPR Potassium Assay Kit: The FLIPR Potassium Assay Kit (R8222 FLIPR Potassium Assay Explorer Kits, Molecular Devices) was used with transfected CHO cells.
(§4) According to optimization process, to achieve a uniform and consistent screening condition of molecules, the following protocol was established: 2 days following transfection cells were seeded in 384-well, black-walled, clear-bottomed, at a density of 5,000 cells per well 24 hours before the assay conductance and incubated overnight in their normal growth medium. On the experiment day the medium was replaced with HBSS, HEPES, and the tested compound/vehicle (0.2% DMSO). Dye solution (prepared according to the manufacturer) was added to the wells and plates were incubated for 1.5 hour light-protected in room temperature. The Tecan Spark plate-reader injectors were primed with Tl+(1 mM Tl2SO4) or Tl++K+(1 mM Tl2SO4; 5 mM K2SO4) for Kv7.3/5 channel activation and data correction or Tl+(1 mM Tl2SO4) or Tl++K+(1 mM Tl2SO4; 10 mM K2SO4) for Kv7.4 for channel activation and data correction. […] To calculate IC50 values, the data was fitted to sigmoidal regression using Prism GraphPad.

hKv7.3/5 = target: T2, hKv7.3/5 (Homo sapiens, UniProt O43525+Q9NR82); experiment: Kv7.3/5 HCS, FLIPR potassium assay; type: cell-based
T2 construct: expressed in transfected cells; host or cells: CHO
Procedure: as §1, §2, §3, §4

CYP3A4 = experiment: CYP inhibition / time-dependent inhibition, CYP3A4_Midazolam; type: in vitro ADME, human; settings: for TDI related reactive metabolite: Table 11
Procedure: The time-dependent inactivation potency of the test compound to CYP enzymatic activities was assessed by the pre-incubation of the human liver microsomes with the test compound in the presence and absence of NADPH, followed by the incubation with the discrete marker substrates, as follows.
Pre-incubation with human liver microsomes (HLMs): The TDI inactivation potency on CYP enzymatic activities was evaluated through pre-incubation with HLMs (Corning). A liver microsome mixture at a concentration of 0.1 mg/mL, and the test compound at 8 different concentrations (0, 0.05, 0.165, 0.5, 1.65, 5.0, 16.5, or 50.0 μM) was warmed at 37° C. for 10 minutes. Concurrently, a set of known time-dependent inactivators was also prepared in duplicate for comparison. Following this, NADPH (1.0 mM) was added to one group (Group 1), and an equal volume of potassium phosphate buffer to the second group (Group 2), marking the beginning of a 30-minute pre-incubation at 37° C.
Incubation: After pre-incubation, the marker substrate, or marker substrate plus NADPH was added to the mixture, thereby initiating the incubation. The duration of the incubation was dependent on the type of CYP isoform being evaluated. For example, with the CYP3A isoform, the mixture was incubated over 3 minutes utilizing midazolam as the marker substrate (2.0 μM), verapamil as the standard inactivator (3.5 μM).
Termination of Reaction: Following the incubation, ice-cooled acetonitrile containing the internal standard (IS) was added to halt the reactions. Metabolites generated from the marker substrates were then measured via LC-MS/MS, assessed based on peak area ratios of the analyte to IS.

[1] = rat, plasma, read-out: PK: Oral BA

T2 sequence (O43525 whole entry): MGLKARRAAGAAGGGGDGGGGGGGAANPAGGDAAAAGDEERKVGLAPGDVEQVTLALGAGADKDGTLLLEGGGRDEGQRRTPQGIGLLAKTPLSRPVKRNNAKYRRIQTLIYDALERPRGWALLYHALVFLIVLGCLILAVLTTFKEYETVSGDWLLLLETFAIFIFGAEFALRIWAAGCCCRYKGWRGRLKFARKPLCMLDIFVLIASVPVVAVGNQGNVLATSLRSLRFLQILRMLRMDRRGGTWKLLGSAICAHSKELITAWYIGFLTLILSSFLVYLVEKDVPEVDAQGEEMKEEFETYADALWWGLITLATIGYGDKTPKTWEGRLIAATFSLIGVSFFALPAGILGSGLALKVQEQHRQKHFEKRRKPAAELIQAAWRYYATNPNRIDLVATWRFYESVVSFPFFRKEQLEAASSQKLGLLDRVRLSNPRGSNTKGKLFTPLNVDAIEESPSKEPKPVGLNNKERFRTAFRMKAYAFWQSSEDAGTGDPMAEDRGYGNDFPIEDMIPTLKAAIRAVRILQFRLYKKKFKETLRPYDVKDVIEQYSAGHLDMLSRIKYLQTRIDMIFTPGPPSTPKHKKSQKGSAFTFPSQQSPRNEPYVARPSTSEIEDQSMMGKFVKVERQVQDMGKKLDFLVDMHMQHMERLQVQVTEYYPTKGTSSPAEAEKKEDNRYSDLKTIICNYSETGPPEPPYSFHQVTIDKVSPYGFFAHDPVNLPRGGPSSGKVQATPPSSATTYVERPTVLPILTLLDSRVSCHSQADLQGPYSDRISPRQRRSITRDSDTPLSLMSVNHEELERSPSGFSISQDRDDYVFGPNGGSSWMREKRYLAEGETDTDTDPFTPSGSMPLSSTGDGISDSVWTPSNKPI
T2 sequence (Q9NR82 whole entry): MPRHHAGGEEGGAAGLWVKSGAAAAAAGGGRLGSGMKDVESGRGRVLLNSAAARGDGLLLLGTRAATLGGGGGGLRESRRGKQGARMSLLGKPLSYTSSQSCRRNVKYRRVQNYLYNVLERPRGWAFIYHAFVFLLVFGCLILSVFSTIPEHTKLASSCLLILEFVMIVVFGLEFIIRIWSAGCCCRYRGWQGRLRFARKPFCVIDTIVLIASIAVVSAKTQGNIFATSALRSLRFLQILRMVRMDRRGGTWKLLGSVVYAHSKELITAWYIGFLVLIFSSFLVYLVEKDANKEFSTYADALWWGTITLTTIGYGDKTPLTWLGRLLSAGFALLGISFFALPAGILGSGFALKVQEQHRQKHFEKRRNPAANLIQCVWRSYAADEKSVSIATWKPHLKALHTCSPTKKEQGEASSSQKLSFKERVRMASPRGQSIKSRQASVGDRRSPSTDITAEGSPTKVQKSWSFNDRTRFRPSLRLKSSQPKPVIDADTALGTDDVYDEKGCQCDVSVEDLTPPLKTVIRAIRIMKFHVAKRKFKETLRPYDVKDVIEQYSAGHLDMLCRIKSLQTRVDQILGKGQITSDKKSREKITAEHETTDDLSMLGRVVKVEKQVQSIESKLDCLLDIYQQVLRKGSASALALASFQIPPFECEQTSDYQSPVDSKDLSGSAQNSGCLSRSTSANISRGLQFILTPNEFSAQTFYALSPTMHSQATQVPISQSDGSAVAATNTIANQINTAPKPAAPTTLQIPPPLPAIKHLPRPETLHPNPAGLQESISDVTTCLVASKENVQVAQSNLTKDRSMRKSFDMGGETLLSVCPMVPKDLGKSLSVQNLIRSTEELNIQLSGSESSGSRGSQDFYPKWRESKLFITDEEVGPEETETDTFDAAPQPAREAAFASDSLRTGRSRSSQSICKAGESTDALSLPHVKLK
T1 sequence (P56696 whole entry): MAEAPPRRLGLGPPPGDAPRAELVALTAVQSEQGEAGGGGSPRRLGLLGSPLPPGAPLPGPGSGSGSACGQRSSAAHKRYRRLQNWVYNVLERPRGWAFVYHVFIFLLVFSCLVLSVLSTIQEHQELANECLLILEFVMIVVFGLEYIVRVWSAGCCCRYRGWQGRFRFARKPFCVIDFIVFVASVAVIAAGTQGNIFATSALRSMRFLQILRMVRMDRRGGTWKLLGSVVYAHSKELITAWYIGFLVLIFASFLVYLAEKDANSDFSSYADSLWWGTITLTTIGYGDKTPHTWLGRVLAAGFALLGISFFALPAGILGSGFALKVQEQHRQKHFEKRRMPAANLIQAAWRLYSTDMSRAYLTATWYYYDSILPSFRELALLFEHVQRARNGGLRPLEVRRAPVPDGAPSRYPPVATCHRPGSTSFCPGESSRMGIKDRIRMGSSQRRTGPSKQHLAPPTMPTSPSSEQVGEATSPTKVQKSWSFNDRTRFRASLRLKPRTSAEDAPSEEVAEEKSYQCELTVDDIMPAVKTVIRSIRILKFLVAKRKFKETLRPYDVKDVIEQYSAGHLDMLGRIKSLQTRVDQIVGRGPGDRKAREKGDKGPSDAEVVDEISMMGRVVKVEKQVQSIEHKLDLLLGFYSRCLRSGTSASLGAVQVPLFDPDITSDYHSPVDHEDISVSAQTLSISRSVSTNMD

clearance (Rat pharmacokinetics; rat, plasma, iv, 1 mg/kg) [mL/min/kg] | bioavailability (Rat pharmacokinetics; [1]) [%] | EC50 (hKv7.4; read-out: Kv7.4 EC50 HCS) [µM] | EC50 (hKv7.3/5; read-out: Kv7.3/5 EC50 HCS) [µM] | half-life (Rat pharmacokinetics; rat, plasma) [h] | TDI related reactive metabolite (CYP3A4) | Structure (SMILES) | Kv7.4 activity (hKv7.4) | further results
6.6 | 73.4 |  |  |  |  | O=C(Cc1cc(-n2cc(C(F)(F)F)c3cc(Cl)cc(Cl)c32)ncn1)NCCO [Compound 843] |  | 
35.7 | 28.8 | 49.3 | 40.9 | 2.49 | Yes | O=C(Cc1cncc(-n2cc(Cl)c3cc(Cl)cc(Cl)c32)c1)N[C@@H]1COC[C@H]1O [Compound 661] | no measurable activity at any concentration tested | Multiple of free plasma exposure over IC50 (rat DRG) (Rat pharmacokinetics; 10 mg/kg oral): 30 fold; Free plasma exposure, fu plasma C8 hour (Rat pharmacokinetics; 10 mg/kg oral, 8 hours): 0.09 nM; Dose from which efficacious levels are expected (Rat pharmacokinetics; oral, extrapolated from 10 mg/kg): 2 mg/kg
38.5 | 10.6 | > 2 | 3 |  | Yes | Cc1cn(-c2ccc(F)c(CC(=O)NCC(C)(C)O)c2)c2c(Cl)cc(Cl)cc12 [Compound 421] |  | 
65.8 | 25.3 | 88 | > 0.6 | 1.48 | Yes | O=C(Cc1cc(-n2cc(Cl)c3cc(Cl)cc(Cl)c32)ccc1F)NCCO [Compound 627] |  | 
 |  |  |  |  |  | O=C(Cc1ccnc(-n2cc(Cl)c3cc(Cl)cc(Cl)c32)n1)N[C@@H]1COC[C@H]1O [Compound 820] |  | CYP-TDI (midazolam), (−)NADPH/(+)NADPH Ratio CYP3A4 (CYP3A4; role: inhibitor, substrate midazolam 2.0 μM, CYP TDI ratio): <0.9

Structure (SMILES) | clearance (Rat pharmacokinetics; rat, plasma, iv, 1 mg/kg) [mL/min/kg] | bioavailability (Rat pharmacokinetics; [1]) [%] | EC50 (hKv7.4; read-out: Kv7.4 EC50 HCS) [µM] | EC50 (hKv7.3/5; read-out: Kv7.3/5 EC50 HCS) [µM] | half-life (Rat pharmacokinetics; rat, plasma) [h] | TDI related reactive metabolite (CYP3A4) | Kv7.4 activity (hKv7.4) | further results
O=C(Cc1nccc(-n2cc(Cl)c3cc(Cl)cc(Cl)c32)n1)NC1COCC1O (stereo not drawn) [Compound 760] | 60.1 |  |  |  | 2.68 | No | lacks any effect on hERG and Kv7.3/4/5 activity below 10 μM | EC50 (hKv7.4; Thallium ions (Tl+) fluorescence, read-out: hKv7.4 EC50): 46.2 µM; EC50 (hKv7.3/5; Thallium ions (Tl+) fluorescence, read-out: hKv7.3/5 EC50): 10.7 µM; Vd (Rat pharmacokinetics; rat, plasma, iv, 1 mg/kg, read-out: Volume of distribution at steady state (Vdss)): 2.37 L/kg; bioavailability (Rat pharmacokinetics; rat, plasma, read-out: Oral bioavailability): 48.6%; CYP inhibition / TDI, all CYPs of Table 9 (CYP3A4; role: inhibitor, up to 20 micromolar): did not show significant CYP inhibition or time-dependent inhibition (TDI)

— US20260327211A1, “MODULATORS OF A POTASSIUM CHANNEL AND OF TRPV1 CHANNEL AND USES THEREOF” (Bsense Bio Therapeutics Ltd., priority 2023, published 2026)
